Assay: Effect of surfactants on stability of citric acid solutions, accelerated aging on a hot plate
Assay type: physicochemical
Description: In the following example, the stability of solutions containing an acid component and different surfactants (surfactants) was evaluated. Solutions of 4.4% citric acid and 0.5% surfactant were prepared. The solutions were placed in clear glass bottles, and the bottles were placed on a hot plate to approximate accelerated aging conditions. The temperature of the liquids in the bottle was about 60° C., although some variations occurred depending upon the position of the bottle.

POLOXAMER 407
Observations (stability of solution): Yellow precipitate formed at bottom

POLOXAMER 237
Observations (stability of solution): Slightly cloudy after 64 days.
